Results on 10 compounds are retold here after patent publication US5066818A, “Photochromic naphthopyran compounds” (PPG Industries, Inc., priority 1990, dated 1991).

Series [1] is described as follows: Photochromic response on optical bench of naphthopyrans imbibed into polymer test samples. Type of series: physicochemical. To be noted: homopolymer of diethylene glycol bis(allyl carbonate); for Δ OD at SATURATION: 150 watt Xenon lamp, about one sun, twenty minutes exposure; for Bleach Rate T1/2: values in sec. Here is the method: Naphthopyran compounds prepared in the above-described Examples were imbibed by thermal transfer into test samples of a homopolymer of diethylene glycol bis(allyl carbonate) by the following procedure. Each naphthopyran was dissolved into toluene solvent to form a 4% solution of the compound. A piece of No. 4 Whatman filter paper was saturated with the naphthopyran solution and allowed to air dry. The dried filter paper was placed on one side of the polymer test sample, which measured 1/8 inch (0.3 centimeter)×2 inch (5.1 centimeters)×2 inch (5.1 centimeters). A piece of untreated filter paper was placed on the other side of the polymer test sample and the resulting sandwich placed between two plates of flat aluminum metal plates. The entire assembly was then placed in a 155° C. oven for a time sufficient to thermally transfer the naphthopyran into the polymer test sample.
The imbibed test samples were removed from the oven, washed with acetone, and tested for photochromic response rates on an optical bench. The samples were illuminated by a 150 watt Xenon lamp fitted with a copper sulfate bath and neutral density filter at an intensity of about one sun. The optical density at saturation was determined at twenty minutes exposure.

Series [2] is described as follows: Photochromic behaviour (coloring, bleaching) stated in words. Type of series: physicochemical. To be noted: for coloring on exposure to ultraviolet light: near ultraviolet; for bleaching / rate of fade in words: room temperature and above, or ambient temperature.

As to `COc1ccc(C2(c3ccccc3)C=Cc3c(ccc4ccccc34)O2)cc1` (centres unmarked) [Comparative Example 2, 3-phenyl-3(4-methoxyphenyl)-3H-naphtho[2,1-b]pyran], in series [1], the “Δ OD at SATURATION” value was 0.25 and the “Bleach Rate T1/2” value worked out at 0.583 min.
With `FC(F)(F)c1ccc(C2(c3ccccc3)C=Cc3ccc4ccccc4c3O2)cc1` (centres unmarked) [Comparative Example 4, 3-phenyl-3(4-trifluoromethylphenyl)-2H-naphtho[1,2-b]pyran], the “Δ OD at SATURATION” value in series [1] is 1.63.
For `COc1ccc(C2(c3ccc(OC)cc3C)C=Cc3c(ccc4ccccc34)O2)cc1` (centres unmarked) [Example 3, 3(2-methyl-4-methoxyphenyl)-3-(4methoxyphenyl)-3H-naphtho-[2,1-b]pyran], in series [1], the “Δ OD at SATURATION” value was 1.35 and the “Bleach Rate T1/2” value stood at 8.5 min.
The like results for `COc1ccc(C2(c3ccccc3C)C=Cc3c(ccc4ccccc34)O2)cc1` (centres unmarked) [Example 4, 3(2-methylphenyl)-3-(4-methoxyphenyl)-3H-naphtho[2,1-b]pyran] were, in that order, 2.40 and 10 min.
The like results for `COc1ccc(C2(c3ccccc3)C=Cc3c(ccc4ccccc34)O2)c(OC)c1` (centres unmarked) [Example 5, 3-phenyl-3-(2,4-dimethoxyphenyl)-3H-naphtho[2,1-b]pyran] were, in that order, 1.42 and 8.5 min.
As to `COc1ccc(C2(c3c(F)cccc3F)C=Cc3c(ccc4ccccc34)O2)cc1` (centres unmarked) [Example 6, 3(2,6-difluorophenyl)-3(4-methoxyphenyl)-3H-naphtho[2,1-b]pyran], the “Δ OD at SATURATION” value in series [1] came to 2.23.
Consider `C1=CC(c2ccccc2)(c2ccccc2)Oc2c1ccc1ccccc21` [a., 2,2diphenyl-2H naphthol[1,2b]pyran], for which the “Δ OD at SATURATION” value in series [1] came out at 1.37. In series [2], the “coloring on exposure to ultraviolet light” value is listed as “colors on exposure to near ultraviolet light at room temperature” and the “bleaching / rate of fade in words” value is given as “does not bleach in a reasonable period of time”.
With `C1=CC(c2ccccc2)(c2ccccc2)Oc2ccc3ccccc3c21` [compound 1, 3,3-diphenyl-3H-naphtho[2,1-b]pyran], in series [1], the “Δ OD at SATURATION” value is on record as 0.36 and the “Bleach Rate T1/2” value was 0.75 min. Also, in series [2], the “coloring on exposure to ultraviolet light” value is on record as “change color on exposure to the near ultraviolet” and the “bleaching / rate of fade in words” value was “bleaches too rapidly for use in an ophthalmic lens”.
As for `COc1ccc(C2(c3ccc(C)cc3)C=Cc3c(ccc4ccccc34)O2)cc1` (centres unmarked) [compound 3, 3(4-methylphenyl)-3-(4-methoxyphenyl)-3H-naphtho[2,1-b]pyran], in series [1], the “Δ OD at SATURATION” value amounted to 0.21 and the “Bleach Rate T1/2” value was 0.667 min.
`FC(F)(F)c1cccc(C2(c3cccc(C(F)(F)F)c3)C=Cc3ccc4ccccc4c3O2)c1` [compound 5, 3,3-di(3-trifluoromethyl)phenyl-2H-naphtho [1,2-b]pyran]: the “Δ OD at SATURATION” value in series [1] came to 1.07.
